Data reported in patent US10759794B2, “2-phenyl-3-(piperazinomethyl)imidazo[1,2-A]pyridine derivatives as blockers of task-1 and task-2 channels, for the treatment of sleep-related breathing disorders” (BAYER PHARMA AKTIENGESELLSCHAFT, priority 2015, dated 2020).

Columns and labels:
human TASK-3 = human TASK-3 (Homo sapiens (Human), UniProt Q9NPC2); assay: Inhibition of recombinant TASK-3 in stably transfected CHO cells (voltage-sensitive dye, FLIPR); format: cell-based
Description: (§1) B-2. Inhibition of Recombinant TASK-1 and TASK-3 In Vitro
(§2) The investigations on the inhibition of the recombinant TASK-1 and TASK-3 channels were carried out using stably transfected CHO cells. Here, the compounds according to the invention were tested with administration of 40 mM of potassium chloride in the presence of a voltage-sensitive dye using the method described in detail in the following references [Whiteaker et al., Validation of FLIPR membrane potential dye for high-throughput screening of potassium channel modulators, J. Biomol. Screen. 6 (5), 305-312 (2001); Molecular Devices FLIPR Application Note: Measuring membrane potential using the FLIPR® membrane potential assay kit on Fluorometric Imaging Plate Reader (FLIPR®) systems, http://www.moleculardevices.com/reagents-supplies/assay-kits/ion-channels/flipr-membrane-potential-assay-kits]. The activity of the test substances was determined as their ability to inhibit a depolarization induced in the recombinant cells by 40 mM potassium chloride. The concentration which can block half of this depolarization is referred to as IC50.

human TASK-1 = human TASK-1 (Homo sapiens (Human), UniProt O14649); assay: Inhibition of recombinant TASK-1 in stably transfected CHO cells (voltage-sensitive dye, FLIPR); format: cell-based
Description: as §1, §2

[1] = depolarization induced by 40 mM potassium chloride, Table 2A
[2] = 40 mM potassium chloride, comparative compounds, Table 2B

Sequence of human TASK-1 (O14649 whole entry): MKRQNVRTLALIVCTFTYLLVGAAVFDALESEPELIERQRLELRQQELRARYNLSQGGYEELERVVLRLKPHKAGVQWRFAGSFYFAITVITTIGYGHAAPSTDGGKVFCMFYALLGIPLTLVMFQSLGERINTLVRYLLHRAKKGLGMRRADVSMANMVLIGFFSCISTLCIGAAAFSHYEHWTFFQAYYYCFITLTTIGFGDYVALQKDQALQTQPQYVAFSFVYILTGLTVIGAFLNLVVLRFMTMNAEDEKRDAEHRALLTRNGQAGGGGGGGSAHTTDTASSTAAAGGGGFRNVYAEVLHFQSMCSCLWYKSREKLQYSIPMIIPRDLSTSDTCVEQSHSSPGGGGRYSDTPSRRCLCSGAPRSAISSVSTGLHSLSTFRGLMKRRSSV
Sequence of human TASK-3 (Q9NPC2 whole entry): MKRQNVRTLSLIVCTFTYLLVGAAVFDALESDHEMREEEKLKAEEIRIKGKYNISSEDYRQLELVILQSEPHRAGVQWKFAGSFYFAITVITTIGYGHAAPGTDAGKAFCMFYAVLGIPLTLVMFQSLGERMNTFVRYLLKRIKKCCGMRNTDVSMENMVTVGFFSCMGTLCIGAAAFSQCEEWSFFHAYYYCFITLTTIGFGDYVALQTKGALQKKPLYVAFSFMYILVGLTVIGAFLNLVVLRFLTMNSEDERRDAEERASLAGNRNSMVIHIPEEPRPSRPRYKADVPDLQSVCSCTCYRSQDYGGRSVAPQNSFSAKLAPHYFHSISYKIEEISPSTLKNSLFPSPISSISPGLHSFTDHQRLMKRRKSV

IC50 (human TASK-3; [1]) [nM] | IC50 (human TASK-1; [1]) [nM] | IC50 (human TASK-3; [2]) [nM] | IC50 (human TASK-1; [2]) [nM] | Structure (SMILES)
11 | 66 |  |  | O=C(c1ccccc1F)N1CCN(Cc2c(-c3ccc(C4CC4)cc3)nc3ccccn23)CC1 [Example 69, (4-{[2-(4-Cyclopropylphenyl)imidazo[1,2-a]pyridin-3-yl]methyl}piperazin-1-yl)(2-fluorophenyl)methanone]
30 | 1000 |  |  | O=C(c1cccc(OCC(F)(F)F)n1)N1CCN(Cc2c(-c3ccc(Cl)cc3)nc3ccccn23)CC1 [Example 38]
14 | 510 |  |  | CCOc1ccccc1C(=O)N1CCN(Cc2c(-c3ccc(Cl)cc3)nc3ccccn23)CC1 [Example 28]
1400 | 2050 |  |  | COc1cccc(C(=O)N2CCN(Cc3c(-c4ccc(C#N)cc4)nc4ccccn34)CC2)n1 [Example 61]
9.1 | 67 |  |  | COc1ccc(C)c(C(=O)N2CCN(Cc3c(-c4ccc(Br)cc4)nc4ccccn34)CC2)n1 [Example 74]
700 | 642 |  |  | Cc1ccc(-c2nc3ccccn3c2CN2CCN(C(=O)C3CCCC3)CC2)cc1 [Example 56]
590 | 708 |  |  | O=C(c1ccccn1)N1CCN(Cc2c(-c3ccc(Cl)cc3)nc3ccccn23)CC1 [Example 26]
63 | 2000 |  |  | CCOc1cccc(C(=O)N2CCN(Cc3c(-c4ccc(Cl)cc4)nc4ccccn34)CC2)n1 [Example 45]
16 | 230 |  |  | COc1ccc(C)c(C(=O)N2CCN(Cc3c(-c4ccc(C#N)cc4)nc4ccccn34)CC2)n1 [Example 71]
13 | 310 |  |  | COc1ccc(Br)c(C(=O)N2CCN(Cc3c(-c4ccc(Cl)cc4)nc4ccccn34)CC2)n1 [Example 42]
300 | 515 |  |  | COc1cccc(C(=O)N2CCN(Cc3c(-c4ccc(Cl)cc4)nc4ccccn34)CC2)c1 [Example 19]
17 | 170 |  |  | COc1ccc(C)c(C(=O)N2CCN(Cc3c(-c4ccc(C(C)(C)C)cc4)nc4ccccn34)CC2)n1 [Example 73]
140 | 387 |  |  | Cc1ccccc1C(=O)N1CCN(Cc2c(-c3ccc(Cl)cc3)nc3ccccn23)CC1 [Example 22]
 |  | 30000 | 30000 | COc1cccc(-c2nc3ccccn3c2CN2CCN(C(=O)C3CCC3)CC2)c1 [WO 2014/187922 Example 208, reference compound]
2900 | 962 |  |  | Cc1ccc(-c2nc3ccccn3c2CN2CCN(C(=O)C3CCCCC3)CC2)cc1 [Example 57]
1400 | 1620 |  |  | COc1ccc(F)cc1C(=O)N1CCN(Cc2c(-c3ccc(F)cc3)nc3ccccn23)CC1 [Example 50]
750 | 1100 |  |  | CC(C)(C)c1ccc(-c2nc3ccccn3c2CN2CCN(C(=O)c3ccccc3F)CC2)cc1 [Example 65]
130 | 430 |  |  | N#Cc1ccccc1C(=O)N1CCN(Cc2c(-c3ccc(Cl)cc3)nc3ccccn23)CC1 [Example 32]
1300 | 2100 |  |  | CC(C)Oc1cccc(C(=O)N2CCN(Cc3c(-c4ccc(Cl)cc4)nc4ccccn34)CC2)c1 [Example 31]
350 | 1800 |  |  | COc1ccc(F)c(C(=O)N2CCN(Cc3c(-c4ccc(C#N)cc4)nc4ccccn34)CC2)c1 [Example 70]
200 | 232 |  |  | O=C(C1CCCCC1)N1CCN(Cc2c(-c3ccc(Br)cc3)nc3ccccn23)CC1 [Example 9]
2500 | 893 |  |  | O=C(C1CCCCC1)N1CCN(Cc2c(-c3ccc(F)cc3)nc3ccccn23)CC1 [Example 8, (4-{[2-(4-Fluorophenyl)imidazo[1,2-a]pyridin-3-yl]methyl}piperazin-1-yl)(cyclohexyl)methanone]
350 | 672 |  |  | COc1ccc(F)cc1C(=O)N1CCN(Cc2c(-c3ccc(Br)cc3)nc3ccccn23)CC1 [Example 13]
770 | 1000 |  |  | COc1cc(C)cc(C(=O)N2CCN(Cc3c(-c4ccc(Cl)cc4)nc4ccccn34)CC2)n1 [Example 40]
820 | 1900 |  |  | O=C(c1cccc(C(F)(F)F)c1)N1CCN(Cc2c(-c3ccc(Cl)cc3)nc3ccccn23)CC1 [Example 25]
5.2 | 93 |  |  | COc1ccc(F)c(C(=O)N2CCN(Cc3c(-c4ccc(Cl)cc4)nc4ccccn34)CC2)n1 [Example 68, (4-{[2-(4-Chlorophenyl)imidazo[1,2-a]pyridin-3-yl]methyl}piperazin-1-yl)(3-fluoro-6-methoxypyridin-2-yl)methanone]
 |  | 4800 | 30000 | O=C(c1cccc(F)c1)N1CCN(Cc2c(-c3ccc(Cl)cc3)nc3ccc(C4CC4)cn23)CC1 [WO 2014/187922 Example 178, reference compound]

IC50 (human TASK-3; [1]) [nM] | IC50 (human TASK-1; [1]) [nM] | IC50 (human TASK-3; [2]) [nM] | IC50 (human TASK-1; [2]) [nM] | Structure (SMILES)
510 | 774 |  |  | O=C(C1CCCCC1)N1CCN(Cc2c(-c3ccc(Cl)cc3)nc3ccccn23)CC1 [Example 17]
99 | 1200 |  |  | COc1ccc(Cl)c(C(=O)N2CCN(Cc3c(-c4ccc(Cl)cc4)nc4ccccn34)CC2)c1 [Example 29]
830 | 1500 |  |  | CC(C)(C)c1ccc(-c2nc3ccccn3c2CN2CCN(C(=O)C3CCCC3)CC2)cc1 [Example 66]
71 | 409 |  |  | COc1ccccc1C(=O)N1CCN(Cc2c(-c3ccc(Br)cc3)nc3ccccn23)CC1 [Example 12]
4600 | 1700 |  |  | N#Cc1ccc(-c2nc3ccccn3c2CN2CCN(C(=O)c3ccccc3F)CC2)cc1 [Example 60]
400 | 1800 |  |  | O=C(C1CCCCO1)N1CCN(Cc2c(-c3ccc(Cl)cc3)nc3ccccn23)CC1 (stereo not drawn) [Example 30]
160 | 685 |  |  | Cc1ccc(F)cc1C(=O)N1CCN(Cc2c(-c3ccc(Cl)cc3)nc3ccccn23)CC1 [Example 23]
450 | 510 |  |  | COc1cccc(C(=O)N2CCN(Cc3c(-c4ccc(C(C)(C)C)cc4)nc4ccccn34)CC2)n1 [Example 64]
310 | 481 |  |  | Cc1ccccc1C(=O)N1CCN(Cc2c(-c3ccc(Br)cc3)nc3ccccn23)CC1 [Example 14]
150 | 454 |  |  | COc1ccc(F)cc1C(=O)N1CCN(Cc2c(-c3ccc(Cl)cc3)nc3ccccn23)CC1 [Example 21]
560 | 1160 |  |  | COc1ccccc1C(=O)N1CCN(Cc2c(-c3ccc(F)cc3)nc3ccccn23)CC1 [Example 52]
380 | 1170 |  |  | Cc1ccc(F)cc1C(=O)N1CCN(Cc2c(-c3ccc(Br)cc3)nc3ccccn23)CC1 [Example 15]
 |  | 2200 | 30000 | O=C(c1ccccc1Cl)N1CCN(Cc2c(-c3ccc(Cl)cc3)nc3ccc(-c4ccccc4)cn23)CC1 [WO 2014/187922 Example 64, reference compound]
 |  | 30000 | 30000 | O=C(c1ccncc1)N1CCN(Cc2c(-c3ccc(Cl)cc3)nc3ccc(C4CC4)cn23)CC1 [WO 2014/187922 Example 196, reference compound]
830 | 551 |  |  | O=C(C1CCCC1)N1CCN(Cc2c(-c3ccc(F)cc3)nc3ccccn23)CC1 [Example 48]
1000 | 1890 |  |  | O=C(c1cc(F)ccc1Cl)N1CCN(Cc2c(-c3ccc(F)cc3)nc3ccccn23)CC1 [Example 51]
380 | 827 |  |  | COc1cccc(C(=O)N2CCN(Cc3c(-c4ccc(Br)cc4)nc4ccccn34)CC2)c1 [Example 5, (4-{[2-(4-Bromophenyl)imidazo[1,2-a]pyridin-3-yl]methyl}piperazin-1-yl)(3-methoxyphenyl)methanone]
360 | 500 |  |  | O=C(c1cc(F)ccc1Cl)N1CCN(Cc2c(-c3ccc(Br)cc3)nc3ccccn23)CC1 [Example 6, (4-{[2-(4-Bromophenyl)imidazo[1,2-a]pyridin-3-yl]methyl}piperazin-1-yl)(2-chloro-5-fluorophenyl)methanone]
1600 | 1300 |  |  | N#Cc1ccc(-c2nc3ccccn3c2CN2CCN(C(=O)C3CCCCC3)CC2)cc1 [Example 63]
810 | 1140 |  |  | O=C(c1cccc(OC(F)(F)F)c1)N1CCN(Cc2c(-c3ccc(Cl)cc3)nc3ccccn23)CC1 [Example 24]
 |  | 5700 | 30000 | O=C(c1cnccn1)N1CCN(Cc2c(-c3ccc(Cl)cc3)nc3ccc(C4CC4)cn23)CC1 [WO 2014/187922 Example 263, reference compound]
120 | 590 |  |  | COc1ccc(F)c(C(=O)N2CCN(Cc3c(-c4ccc(Cl)cc4)nc4ccccn34)CC2)c1 [Example 27]
240 | 378 |  |  | O=C(C1CCC1)N1CCN(Cc2c(-c3ccc(Br)cc3)nc3ccccn23)CC1 [Example 11]
790 | 1250 |  |  | O=C(C1CCCO1)N1CCN(Cc2c(-c3ccc(Cl)cc3)nc3ccccn23)CC1 (stereo not drawn) [Example 35]
430 | 800 |  |  | COc1cccc(C(=O)N2CCN(Cc3c(-c4ccc(C)cc4)nc4ccccn34)CC2)n1 [Example 59]
240 | 1200 |  |  | O=C(c1cccc(OC2CCOCC2)n1)N1CCN(Cc2c(-c3ccc(Cl)cc3)nc3ccccn23)CC1 [Example 46]
10 | 220 |  |  | COc1ccc(Cl)c(C(=O)N2CCN(Cc3c(-c4ccc(Cl)cc4)nc4ccccn34)CC2)n1 [Example 43]
